# According to patent US10590086B2, “Pharmaceutical compound” (IOmet Pharma Ltd., priority 2014, dated 2020):
# Assays:
# [1] = target: T1, IDO (Homo sapiens, UniProt P14902); assay: hIDO biochemical coupled assay; details: 45 μM L-tryptophan, 17 minutes, room temperature; read-out: hIDO biochemical assay pIC50 (converted)
# [2] = target: T1, IDO; assay: SKOV3 kynurenine cell-based assay (IDO induced by IFN-γ); set-up: IDO expression was induced in the SKOV3 cells by the addition of 500 ng/ml IFN-γ; endogenous in cells; host or cells: SKOV3 (human ovarian adenocarcinoma), induced with IFN-γ; details: SKOV3 human ovarian adenocarcinoma cells, 500 ng/ml IFN-γ, 48 hours, 500 μM L-tryptophan; read-out: SKOV3 Kynurenine cell based assay pIC50 (converted)
# How it was run: (§1)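 Kynurenine in the culture supernatant was measured by absorbance at 490 nm after 5 minutes with Ehrlich's reagent. Cells had been exposed ±compound for 48 hours at 37 °C in phenol red-free RPMI, 10% FCS, 2 mM L-glutamine and 500 μM L-tryptophan. Seeding was 30,000/well for A172 (TDO) and 40,000/well for SKOV3 (IDO, induced with 500 ng/ml IFN-γ).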
# [3] = target: T2, TDO (Homo sapiens, UniProt P48775); assay: A172 kynurenine cell-based assay; set-up: This assay utilised cancer cells which expressed either TDO or IDO; endogenous in cells; host or cells: A172 (human glioblastoma); details: A172 human glioblastoma cells, 48 hours, 500 μM L-tryptophan; read-out: A172 Kynurenine cell based assay pIC50 (converted)
# T2 sequence (P48775 whole entry): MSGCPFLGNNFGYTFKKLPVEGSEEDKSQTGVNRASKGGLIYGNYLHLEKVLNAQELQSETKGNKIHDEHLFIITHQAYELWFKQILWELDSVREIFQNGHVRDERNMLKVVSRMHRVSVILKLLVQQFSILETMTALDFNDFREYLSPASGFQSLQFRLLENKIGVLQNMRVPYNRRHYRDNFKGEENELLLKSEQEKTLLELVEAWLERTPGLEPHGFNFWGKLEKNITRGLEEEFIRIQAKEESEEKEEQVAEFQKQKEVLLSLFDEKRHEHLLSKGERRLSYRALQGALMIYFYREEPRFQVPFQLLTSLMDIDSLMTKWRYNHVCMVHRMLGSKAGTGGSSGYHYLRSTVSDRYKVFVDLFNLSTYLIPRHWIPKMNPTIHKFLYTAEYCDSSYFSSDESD
# How it was run: as §1
# [4] = target: T2, TDO; assay: hTDO biochemical coupled assay; details: 330 μM L-tryptophan, 17 minutes, room temperature; read-out: hTDO biochemical assay pIC50 (converted)
# T1 sequence (P14902 whole entry): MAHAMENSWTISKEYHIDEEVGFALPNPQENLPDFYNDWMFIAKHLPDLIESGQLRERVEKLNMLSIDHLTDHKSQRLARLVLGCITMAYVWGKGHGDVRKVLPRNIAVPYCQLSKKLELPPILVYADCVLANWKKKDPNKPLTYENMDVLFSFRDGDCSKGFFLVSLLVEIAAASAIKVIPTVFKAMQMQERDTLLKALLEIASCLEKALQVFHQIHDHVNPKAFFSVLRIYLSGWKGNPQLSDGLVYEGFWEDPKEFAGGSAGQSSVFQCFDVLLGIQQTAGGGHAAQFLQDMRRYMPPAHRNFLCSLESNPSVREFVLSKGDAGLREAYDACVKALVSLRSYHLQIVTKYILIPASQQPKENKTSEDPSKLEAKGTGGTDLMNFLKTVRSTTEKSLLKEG
IC50 [1] [µM],IC50 [2] [µM],IC50 [3] [µM],IC50 [4] [µM],SMILES
> 100,32.4 to 100,< 3.16,< 3.16,Clc1cc(C2CCCCC2)c2cn[nH]c2c1 [Compound 353]
> 100,3.24 to 31.6,3.24 to 31.6,3.24 to 31.6,Cc1nc2c(n1C)CN(c1cc(Cl)cc3[nH]ncc13)CC2 [Compound 356]
> 100,3.24 to 31.6,< 3.16,< 3.16,CC(=O)Nc1ccc2c(c1)CCN(c1cc(Cl)cc3[nH]ncc13)C2 [Compound 358]
> 100,3.24 to 31.6,3.24 to 31.6,< 3.16,CN(C)C(=O)CC1CCN(c2cc(Cl)cc3[nH]ncc23)CC1 [Compound 362]
32.4 to 100,3.24 to 31.6,< 3.16,< 3.16,NS(=O)(=O)N1CCC2(CCN(c3cc(Cl)cc4[nH]ncc34)CC2)CC1 [Compound 363]
> 100,3.24 to 31.6,< 3.16,< 3.16,CNC(=O)CC1CCN(c2cc(Cl)cc3[nH]ncc23)CC1 [Compound 364]
> 100,3.24 to 31.6,< 3.16,< 3.16,Clc1cc(N2CCN(c3nccs3)CC2)c2cn[nH]c2c1 [Compound 365]
> 100,3.24 to 31.6,< 3.16,3.24 to 31.6,Cn1cc(-c2cc(Cl)cc3[nH]ncc23)cn1 [Compound 366]
> 100,3.24 to 31.6,3.24 to 31.6,3.24 to 31.6,CS(=O)(=O)c1ccc(Oc2cc(Cl)cc3[nH]ncc23)cc1 [Compound 368]
3.24 to 31.6,3.24 to 31.6,< 3.16,< 3.16,Cn1ncc2c1CCN(c1cc(Cl)cc3[nH]ncc13)C2 [Compound 369]
> 100,> 100,< 3.16,< 3.16,CC(=O)NCCN1CCN(c2cc(Cl)cc3[nH]ncc23)CC1 [Compound 379]
> 100,3.24 to 31.6,< 3.16,< 3.16,CNC(=O)C1(C)CCN(c2cc(Cl)cc3[nH]ncc23)CC1 [Compound 382]
< 3.16,< 3.16,< 3.16,< 3.16,O=C1NC2(CCN(c3cc(Cl)cc4[nH]ncc34)CC2)C(=O)N1CC1CC1 [Compound 390]

# Second part, the molecule before the results:
SMILES,IC50 [1] [µM],IC50 [2] [µM],IC50 [3] [µM],IC50 [4] [µM]
CC(=O)N1CCC2(CC1)CCN(c1cc(Cl)cc3[nH]ncc13)CC2 [Compound 352],3.24 to 31.6,< 3.16,< 3.16,< 3.16
O=c1[nH]c2ccccc2n1C1CCN(c2cc(Cl)cc3[nH]ncc23)CC1 [Compound 354],> 100,3.24 to 31.6,< 3.16,< 3.16
CS(=O)(=O)N1CCC2(CCN(c3cc(Cl)cc4[nH]ncc34)CC2)CC1 [Compound 355],32.4 to 100,3.24 to 31.6,< 3.16,< 3.16
Cc1nc2c(n1C)CN(c1cc(C(F)(F)F)cc3[nH]ncc13)CC2 [Compound 357],> 100,< 3.16,< 3.16,3.24 to 31.6
CC(=O)N1CC2(CCN(c3cc(Cl)cc4[nH]ncc34)CC2)C1 [Compound 359],3.24 to 31.6,3.24 to 31.6,< 3.16,< 3.16
Cn1cc2c(n1)CCN(c1cc(Cl)cc3[nH]ncc13)C2 [Compound 360],32.4 to 100,3.24 to 31.6,< 3.16,< 3.16
NS(=O)(=O)N1CCC2(CCN(c3cc(Cl)cc4[nH]ncc34)CC2)C1 [Compound 361],3.24 to 31.6,3.24 to 31.6,< 3.16,< 3.16
NS(=O)(=O)N1CC2(CCN(c3cc(Cl)cc4[nH]ncc34)CC2)C1 [Compound 367],3.24 to 31.6,3.24 to 31.6,< 3.16,< 3.16
CC1(C)CN(c2cc(C(F)F)cc3[nH]ncc23)CCN1S(C)(=O)=O [Compound 370],< 3.16,< 3.16,< 3.16,< 3.16
O=C1Nc2ccccc2C12CCN(c1cc(Cl)cc3[nH]ncc13)CC2 [Compound 371],> 100,3.24 to 31.6,3.24 to 31.6,< 3.16
O=C1CCCN1C1CCN(c2cc(Cl)cc3[nH]ncc23)CC1 [Compound 372],> 100,3.24 to 31.6,< 3.16,< 3.16
CS(=O)(=O)NCCn1cc(-c2cc(Cl)cc3[nH]ncc23)cn1 [Compound 373],> 100,32.4 to 100,< 3.16,3.24 to 31.6
Clc1cc(N2CCN(c3ccncc3)CC2)c2cn[nH]c2c1 [Compound 374],> 100,32.4 to 100,< 3.16,3.24 to 31.6
Clc1cc(N2CCN(c3cccnc3)CC2)c2cn[nH]c2c1 [Compound 375],> 100,3.24 to 31.6,< 3.16,< 3.16
Cc1nn(C)c2c1CN(c1cc(Cl)cc3[nH]ncc13)CC2 [Compound 376],> 100,3.24 to 31.6,< 3.16,< 3.16
CNC(=O)NC1CCN(c2cc(Cl)cc3[nH]ncc23)CC1 [Compound 377],32.4 to 100,3.24 to 31.6,< 3.16,< 3.16
Cc1c2c(nn1C)CCN(c1cc(Cl)cc3[nH]ncc13)C2 [Compound 378],> 100,3.24 to 31.6,< 3.16,< 3.16
CN1CNC(=O)C12CCN(c1cc(Cl)cc3[nH]ncc13)CC2 [Compound 380],> 100,3.24 to 31.6,3.24 to 31.6,3.24 to 31.6
CS(=O)(=O)N1CCC(c2cc(N3CCCC3)cc3[nH]ncc23)CC1 [Compound 383],> 100,> 100,32.4 to 100,> 100
CS(=O)(=O)c1ccc(-c2cc(Cl)cc3[nH]ncc23)c(Cl)c1 [Compound 384],3.24 to 31.6,3.24 to 31.6,< 3.16,< 3.16
CS(=O)(=O)N1CCC(c2cc(C(F)F)cc3[nH]ncc23)CC1 [Compound 387],3.24 to 31.6,3.24 to 31.6,< 3.16,< 3.16
CC(C)CN1C(=O)NC2(CCN(c3cc(Cl)cc4[nH]ncc34)CC2)C1=O [Compound 388],< 3.16,< 3.16,< 3.16,< 3.16
O=C1NC2(CCN(c3cc(Cl)cc4[nH]ncc34)CC2)C(=O)N1CC1CCCCC1 [Compound 389],< 3.16,< 3.16,< 3.16,< 3.16
O=C1NC2(CCN(c3cc(Cl)cc4[nH]ncc34)CC2)C(=O)N1CC1CCOCC1 [Compound 391],< 3.16,< 3.16,< 3.16,< 3.16
CN(C)CCN1C(=O)NC2(CCN(c3cc(Cl)cc4[nH]ncc34)CC2)C1=O [Compound 392],< 3.16,< 3.16,< 3.16,< 3.16
